Data as given in US10112899B2 (ViiV HEALTHCARE UK LIMITED, priority 2014, dated 2018).

Test system: HIV in the HTLV-1 transformed cell line MT-4
Test: organism not typed
Type: cell-based
Conditions: MT4, 96 h, MT-4 cells; luciferase/cell titer glo readout after 96 hours; 10 point dose response

| Compound | IC50 [µM] |
| --- | --- |
| Cc1ccc(-c2c(C)c3c(c(C)c2[C@H](OC(C)(C)C)C(=O)O)CN(C(=O)c2cccc(F)c2C)C3)cc1 [Example 221, (S)-2-(tert-butoxy)-2-(2-(3-fluoro-2-methylbenzoyl)-4,7-dimethyl-6-(p-tolyl)isoindolin-5-yl)acetic acid] | 0.004 |
| Cc1c(-c2c(C)c3c(c(C)c2[C@H](OC(C)(C)C)C(=O)O)CN(C(=O)c2ccccc2)C3)cc(F)c2c1CCCO2 (atropisomer, axis not shown; (M)) [Example 158, (S)-2-(2-benzoyl-6-((M)-8-fluoro-5-methylchroman-6-yl)-4,7-dimethylisoindolin-5-yl)-2-(tert-butoxy)acetic acid] | 0.002 |
| Cc1ccc(C(=O)N2Cc3c(C)c(-c4cc(F)c5c(c4C)CCCO5)c([C@H](OC(C)(C)C)C(=O)O)c(C)c3C2)cc1 (atropisomer, axis not shown; (M)) [Example 190, (S)-2-(tert-butoxy)-2-((M)-6-(8-fluoro-5-methylchroman-6-yl)-4,7-dimethyl-2-(4-methylbenzoyl)isoindolin-5-yl)acetic acid] | 0.005 |
| Cc1c(-c2c(C)c3c(c(C)c2[C@H](OC(C)(C)C)C(=O)O)CN(C(=O)C2CCCCC2)C3)cc(F)c2c1CCCO2 (atropisomer, axis not shown; (M)) [Example 137, (S)-2-(tert-butoxy)-2-((M)-2-(cyclohexanecarbonyl)-6-(8-fluoro-5-methylchroman-6-yl)-4,7-dimethylisoindolin-5-yl)acetic acid] | 0.002 |
| Cc1ccc(-c2c(C)c3c(c(C)c2[C@H](OC(C)(C)C)C(=O)O)CN(C(=O)N2CC4CCCC4C2)C3)cc1 (stereo partly drawn) [Example 82, (2S)-2-(tert-butoxy)-2-(4,7-dimethyl-2-(octahydrocyclopenta[c]pyrrole-2-carbonyl)-6-(p-tolyl)isoindolin-5-yl)acetic acid] | 0.014 |
| Cc1c(-c2c(C)c3c(c(C)c2[C@H](OC(C)(C)C)C(=O)O)CN(C(=O)N2CCCCC2)C3)cc(F)c2c1NCCO2 [Example 318, (2S)-2-(tert-butoxy)-2-(6-(8-fluoro-5-methyl-3,4-dihydro-2H-benzo[b][1,4]oxazin-6-yl)-4,7-dimethyl-2-(piperidine-1-carbonyl)isoindolin-5-yl)acetic acid] | 0.005 |
| Cc1ccc(-c2c(C)c3c(c(C)c2[C@H](OC(C)(C)C)C(=O)O)CN(C(=S)c2cccc(F)c2)C3)cc1 [Example 288, (S)-2-(tert-butoxy)-2-(2-(3-fluorophenylcarbonothioyl)-4,7-dimethyl-6-(p-tolyl)isoindolin-5-yl)acetic acid] | 0.015 |
| Cc1ccc(-c2c(C)c3c(c(C)c2[C@H](OC(C)(C)C)C(=O)O)CN(C(=O)N2CCCC[C@H]2C)C3)cc1 [Example 69, (2S)-2-(tert-butoxy)-2-[4,7-dimethyl-6-(4-methylphenyl)-2-[(2R)-2-methylpiperidine-1-carbonyl]-2,3-dihydro-1H-isoindol-5-yl]acetic acid] | 0.014 |
| Cc1ccc(-c2c(C)c3c(c(C)c2[C@H](OC(C)(C)C)C(=O)O)CN(C(=O)N2CCOC[C@H]2C)C3)cc1 [Example 72, (2S)-2-(tert-butoxy)-2-{4,7-dimethyl-2-[(3R)-3-methylmorpholine-4-carbonyl]-6-(4-methylphenyl)-2,3-dihydro-1H-isoindol-5-yl}acetic acid] | 0.016 |
| COc1cccc(C(=O)N2Cc3c(C)c(-c4cc(F)c5c(c4C)CCCO5)c([C@H](OC(C)(C)C)C(=O)O)c(C)c3C2)c1F (atropisomer, axis not shown; (M)) [Example 148, (S)-2-(tert-butoxy)-2-((M)-2-(2-fluoro-3-methoxybenzoyl)-6-(8-fluoro-5-methylchroman-6-yl)-4,7-dimethylisoindolin-5-yl)acetic acid] | 0.009 |
| Cc1c(-c2c(C)c3c(c(C)c2[C@H](OC(C)(C)C)C(=O)O)CN(c2nc4cc(F)ccc4o2)C3)cc(F)c2c1CCCO2 (atropisomer, axis not shown; (M)) [Example 204, (S)-2-(tert-butoxy)-2-((M)-6-(8-fluoro-5-methylchroman-6-yl)-2-(5-fluorobenzo[d]oxazol-2-yl)-4,7-dimethylisoindolin-5-yl)acetic acid] | 0.665 |
| Cc1ccc(-c2c(C)c3c(c(C)c2[C@H](OC(C)(C)C)C(=O)O)CN(C(=O)NCc2ncccn2)C3)cc1 [Example 290, (S)-2-(tert-butoxy)-2-(4,7-dimethyl-2-((pyrimidin-2-ylmethyl)carbamoyl)-6-(p-tolyl)isoindolin-5-yl)acetic acid] | 2.56 |
| COC(=O)N1Cc2c(C)c(-c3ccc(C)cc3)c([C@H](OC(C)(C)C)C(=O)O)c(C)c2C1 [Example 48, (2S)-2-(tert-butoxy)-2-[2-(methoxycarbonyl)-4,7-dimethyl-6-(4-methylphenyl)-2,3-dihydro-1H-isoindol-5-yl]acetic acid] | 0.573 |
| Cc1c(-c2c(C)c3c(c(C)c2[C@H](OC(C)(C)C)C(=O)O)CN(C(=O)N2CCC(F)(F)C2)C3)cc(F)c2c1NCCO2 [Example 315, (2S)-2-(tert-butoxy)-2-(2-(3,3-difluoropyrrolidine-1-carbonyl)-6-(8-fluoro-5-methyl-3,4-dihydro-2H-benzo[b][1,4]oxazin-6-yl)-4,7-dimethylisoindolin-5-yl) acetic acid] | 0.015 |
| Cc1c2c(c(C)c([C@H](OC(C)(C)C)C(=O)O)c1-c1ccc(Cl)cc1)CN(C(=O)CC(C)(C)C)C2 [Example 135, (S)-2-(tert-butoxy)-2-(6-(4-chlorophenyl)-2-(3,3-dimethylbutanol)-4,7-dimethylisoindolin-5-yl)acetic acid] | 0.023 |
| Cc1ccc(-c2c(C)c3c(c(C)c2[C@H](OC(C)(C)C)C(=O)O)CN(C(=O)N2CCNCC2)C3)cc1 [Example 86, (S)-2-(tert-butoxy)-2-(4,7-dimethyl-2-(piperazine-1-carbonyl)-6-(p-tolyl)isoindolin-5-yl)acetic acid] | 1.16 |
| COc1cccc(C(=O)N2Cc3c(C)c(-c4cc(F)c5c(c4C)CCCO5)c([C@H](OC(C)(C)C)C(=O)O)c(C)c3C2)c1 (atropisomer, axis not shown; (M)) [Example 159, (S)-2-(tert-butoxy)-2-(6-((M)-8-fluoro-5-methylchroman-6-yl)-2-(3-methoxybenzoyl)-4,7-dimethylisoindolin-5-yl)acetic acid] | 0.002 |
| Cc1ccc(-c2c(C)c3c(c(C)c2[C@H](OC(C)(C)C)C(=O)O)CN(C(=O)CC2CCCCC2)C3)cc1 [Example 117, (S)-2-(tert-butoxy)-2-(2-(2-cyclohexylacetyl)-4,7-dimethyl-6-(p-tolyl)isoindolin-5-yl)acetic acid] | 0.017 |
| Cc1ccc(-c2c(C)c3c(c(C)c2[C@H](OC(C)(C)C)C(=O)O)CN(C(=O)C2(C)CCCCC2)C3)cc1 [Example 243, (S)-2-(tert-butoxy)-2-(4,7-dimethyl-2-(1-methylcyclohexanecarbonyl)-6-(p-tolyl)isoindolin-5-yl)acetic acid] | 0.018 |

Same assay, conditions: MT-4 cells; luciferase/cell titer glo readout after 96 hours; 10 point dose response

| Compound | IC50 [µM] |
| --- | --- |
| Cc1ccc(-c2c(C)c3c(c(C)c2C(OC(C)(C)C)C(=O)O)CN(S(=O)(=O)c2cccc4ccccc24)C3)cc1 (centres unmarked) [Example 5, 2-(tert-Butoxy)-2-(4,7-dimethyl-2-(naphthalen-1-ylsulfonyl)-6-(p-tolyl)isoindolin-5-yl)acetic acid] | 0.042 |
